According to PMC12015462, “Prioritization of novel anti-infective stilbene derivatives by combining metabolomic data organization and a stringent 3R-infection model in a knowledge graph” (RSC Advances, 2025):
Where two headings read alike, the source gives them in different places.

What was measured:
Format in all cases: cell-based
Mycobacterium marinum [1] = test: Infection assay: intracellular M. marinum growth (luminescence) in D. discoideum; settings: for activity at 0.411523 µM / activity at 1.23457 µM / activity at 3.7037 µM / activity at 11.1111 µM / activity at 33.3333 µM / activity at 100 µM: 72 h; for activity at 0.411523 µM: conc 0.411522634 uM; for activity at 1.23457 µM: conc 1.234567901 uM; for activity at 3.7037 µM: conc 3.703703704 uM; for activity at 11.1111 µM: conc 11.11111111 uM; for activity at 33.3333 µM: conc 33.33333333 uM; for activity at 100 µM: conc 100 uM; for IC50: interpolated between the two concentrations closest to residual growth 0.5, top concentration 100 μM
Text: (§1) Since fractions were not weighed individually, the injection mass was used to calculate an average mass per fraction and thus a nominal mass concentration.

Dictyostelium discoideum = test: Infection assay: growth of the host amoeba D. discoideum (fluorescence) in infection; settings: for activity at 0.411523 µM / activity at 1.23457 µM / activity at 3.7037 µM / activity at 11.1111 µM / activity at 33.3333 µM / activity at 100 µM: 72 h; for IC50: read-out: IC50 Dd in infection (μM)
Text: as §1

Mycobacterium marinum [2] = test: Anti-biotic assay: M. marinum growth in broth (luminescence); settings: for activity at 0.411523 µM / activity at 1.23457 µM / activity at 3.7037 µM / activity at 11.1111 µM / activity at 33.3333 µM / activity at 100 µM: 72 h
Method: as §1
Plating bacteria and compounds or fractions was performed analogously to the infection assay described above. Bacteria growth was monitored with the Agilent BioTek H1 plate reader by recording luminescence at 32 °C.
The prepared plates were sealed and stored at 4 °C overnight. On the day of the experiment, nine 10 cm Petri dishes were infected (as described before) and grouped into three pools.

[3] = vehicle control set at 1, read-out: mean normalized residual growth, Mm in infection
[4] = vehicle control set at 1, read-out: median normalized residual growth, Mm in infection
[5] = read-out: mean normalized residual growth, Dd in infection
[6] = read-out: median normalized residual growth, Dd in infection
[7] = read-out: mean (normalised M. marinum growth, Mm in broth)
[8] = read-out: median (normalised M. marinum growth, Mm in broth)

Compound	activity at 0.411523 µM (Mycobacterium marinum [1]; [3]) [%]	activity at 0.411523 µM (Mycobacterium marinum [1]; [4]) [%]	activity at 1.23457 µM (Mycobacterium marinum [1]; [3]) [%]	activity at 1.23457 µM (Mycobacterium marinum [1]; [4]) [%]	activity at 3.7037 µM (Mycobacterium marinum [1]; [3]) [%]	activity at 3.7037 µM (Mycobacterium marinum [1]; [4]) [%]	activity at 11.1111 µM (Mycobacterium marinum [1]; [3]) [%]	activity at 11.1111 µM (Mycobacterium marinum [1]; [4]) [%]	activity at 33.3333 µM (Mycobacterium marinum [1]; [3]) [%]	activity at 33.3333 µM (Mycobacterium marinum [1]; [4]) [%]	activity at 100 µM (Mycobacterium marinum [1]; [3]) [%]	activity at 100 µM (Mycobacterium marinum [1]; [4]) [%]	IC50 (Mycobacterium marinum [1]) [µM]	activity at 0.411523 µM (Dictyostelium discoideum; [5]) [%]	activity at 1.23457 µM (Dictyostelium discoideum; [5]) [%]	activity at 3.7037 µM (Dictyostelium discoideum; [5]) [%]	activity at 11.1111 µM (Dictyostelium discoideum; [5]) [%]	activity at 33.3333 µM (Dictyostelium discoideum; [5]) [%]	activity at 100 µM (Dictyostelium discoideum; [5]) [%]	activity at 0.411523 µM (Dictyostelium discoideum; [6]) [%]	also measured
Oc1ccc(/C=C/c2cc(O)c3c(c2)O[C@@H](c2ccc(O)cc2O)[C@@H]3c2cc(O)cc(O)c2)cc1 (relative stereo) [Compound 1, (+)-Gnetin D]	93.5	93.7	114	117	153	154	171	172	168	169	86.4	83.4	> 100	161	111	113	81.5	58.3	47.7	94.2	activity at 1.23457 µM (Dictyostelium discoideum; [6]): 88.8%; activity at 3.7037 µM (Dictyostelium discoideum; [6]): 85.1%; activity at 11.1111 µM (Dictyostelium discoideum; [6]): 80.3%; activity at 33.3333 µM (Dictyostelium discoideum; [6]): 86.2%; activity at 100 µM (Dictyostelium discoideum; [6]): 82.6%; IC50 (Dictyostelium discoideum): > 100 µM; activity at 0.411523 µM (Mycobacterium marinum [2]; [7]): 121%; activity at 1.23457 µM (Mycobacterium marinum [2]; [7]): 119%; activity at 3.7037 µM (Mycobacterium marinum [2]; [7]): 118%; activity at 11.1111 µM (Mycobacterium marinum [2]; [7]): 111%; activity at 33.3333 µM (Mycobacterium marinum [2]; [7]): 110%; activity at 100 µM (Mycobacterium marinum [2]; [7]): 102%; activity at 0.411523 µM (Mycobacterium marinum [2]; [8]): 120%; activity at 1.23457 µM (Mycobacterium marinum [2]; [8]): 116%; activity at 3.7037 µM (Mycobacterium marinum [2]; [8]): 117%; activity at 11.1111 µM (Mycobacterium marinum [2]; [8]): 110%; activity at 33.3333 µM (Mycobacterium marinum [2]; [8]): 110%; activity at 100 µM (Mycobacterium marinum [2]; [8]): 102%
Oc1ccc(C=Cc2cc(O)cc3c2C(c2cc(O)cc(O)c2)C(c2ccc(O)c4c2OC(c2ccc(O)cc2O)C4c2cc(O)cc(O)c2)O3)cc1 (single isomer, unassigned; (-)) [Compound 11, (−)-Gnetuhainin M]	57.2	56.8	112	106	127	128	135	123	28.9	31.3	-4.28	14.1	22.2	150	115	73.2	64.6	39.6	11.1	87.9	activity at 1.23457 µM (Dictyostelium discoideum; [6]): 94.4%; activity at 3.7037 µM (Dictyostelium discoideum; [6]): 85.9%; activity at 11.1111 µM (Dictyostelium discoideum; [6]): 83%; activity at 33.3333 µM (Dictyostelium discoideum; [6]): 90.3%; activity at 100 µM (Dictyostelium discoideum; [6]): 72.8%; IC50 (Dictyostelium discoideum): > 100 µM; activity at 0.411523 µM (Mycobacterium marinum [2]; [7]): 99%; activity at 1.23457 µM (Mycobacterium marinum [2]; [7]): 108%; activity at 3.7037 µM (Mycobacterium marinum [2]; [7]): 110%; activity at 11.1111 µM (Mycobacterium marinum [2]; [7]): 88.7%; activity at 33.3333 µM (Mycobacterium marinum [2]; [7]): 92.2%; activity at 100 µM (Mycobacterium marinum [2]; [7]): 86.8%; activity at 0.411523 µM (Mycobacterium marinum [2]; [8]): 104%; activity at 1.23457 µM (Mycobacterium marinum [2]; [8]): 107%; activity at 3.7037 µM (Mycobacterium marinum [2]; [8]): 115%; activity at 11.1111 µM (Mycobacterium marinum [2]; [8]): 91.1%; activity at 33.3333 µM (Mycobacterium marinum [2]; [8]): 96.7%; activity at 100 µM (Mycobacterium marinum [2]; [8]): 83.5%; IC50 (Mycobacterium marinum [2]; read-out: IC50 Mm in broth (μM)): > 100 µM
